Like-named read-outs stand apart in the source and are kept apart here. Blank lines part the entries; values can stand above or below the compound they belong to. Positions of bridges follow the written chain, without caps; N, C: chain ends. Non-standard residues stand in square brackets, D forms with d. Residues, ends and D or L forms follow the SMILES beside them. Phe(3-CN) = N#Cc1cccc(C[C@H](N)C(=O)O)c1; Phe(3-Me) = Cc1cccc(C[C@H](N)C(=O)O)c1; 2Nal = N[C@@H](Cc1ccc2ccccc2c1)C(=O)O; Tic = O=C(O)[C@@H]1Cc2ccccc2CN1; NMeD = CN[C@@H](CC(=O)O)C(=O)O; Ahp(2) = CCCCC[C@H](N)C(=O)O; NMeNle = CCCC[C@H](NC)C(=O)O; Tle = CC(C)(C)[C@H](N)C(=O)O; NHexGly = CCCCCCNCC(=O)O; NMeA = CN[C@@H](C)C(=O)O; Nle = CCCC[C@H](N)C(=O)O; Orn = NCCC[C@H](N)C(=O)O; Aun = NCCCCCCCCCCC(=O)O; AEEA = NCCOCCOCC(=O)O
Molecular target: T1, mouse VISTA (mVISTA) (Mus musculus, UniProt Q9D659)
T1 construct: expressed in transfected cells; host or cells: Human embryonic kidney 293T cells
T1 sequence (Q9D659 33-308): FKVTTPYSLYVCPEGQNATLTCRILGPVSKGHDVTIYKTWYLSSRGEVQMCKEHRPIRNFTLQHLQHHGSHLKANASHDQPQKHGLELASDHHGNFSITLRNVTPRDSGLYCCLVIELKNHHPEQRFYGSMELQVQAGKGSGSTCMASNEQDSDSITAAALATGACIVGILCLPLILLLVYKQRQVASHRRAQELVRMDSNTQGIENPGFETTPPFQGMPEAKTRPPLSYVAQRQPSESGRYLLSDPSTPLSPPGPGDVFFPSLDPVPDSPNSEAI
Assay: Cell-Based Binding High-Content Assay For mVISTA (HC CBA mVISTA)
Settings: read-out: HC CBA mVISTA IC50
Summary of the method: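 293T cells expressing mouse VISTA, with compounds added either after seeding ("no wash") or before seeding and then washed out after 1 h. Biotinylated peptide 2 nM for 30 min at room temperature, then detection with Alexa 647–streptavidin. After fixation with Hoechst stain, plates were high-content imaged; IC50 from four-parameter logistic fit.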

[1] = cell-based binding high-content assay, mVISTA, the 16th table
[2] = 293T cells expressing mouse VISTA, competition with biotinylated peptide (2 nM)

Compound: CCCCCCN1CC(=O)N[C@@H](Cc2ccc(O)cc2)C(=O)N[C@@H](CC(C)C)C(=O)NCC(=O)N[C@@H](CCCNC(=N)N)C(=O)N2Cc3ccccc3C[C@H]2C(=O)N[C@@H](CCCCC)C(=O)N2CCC[C@H]2C(=O)N[C@@H](C(C)C)C(=O)N[C@@H](CO)C(=O)N[C@H](C(=O)NCC(=O)O)CSCC(=O)N[C@@H](Cc2ccc3ccccc3c2)C(=O)N[C@@H](Cc2ccc(O)cc2)C(=O)N[C@@H](CC(=O)O)C1=O [Ex 1290] ({CH2CO}-[2Nal]YD[NHexGly]YLGR[Tic][Ahp(2)]PVSCG-OH; thioether N-14)
- IC50 [1]: 11.5 nM

Compound: CCCCCCN1CC(=O)N[C@@H](Cc2ccc(O)cc2)C(=O)N[C@@H](CCCC)C(=O)N[C@@H](CC(N)=O)C(=O)N[C@@H](CCCNC(=N)N)C(=O)N(C)[C@@H](CC(=O)O)C(=O)N[C@@H](CCCCC)C(=O)N2CCC[C@H]2C(=O)N[C@@H](C(C)C)C(=O)N[C@@H](CC(=O)O)C(=O)N[C@H](C(=O)NCC(=O)O)CSCC(=O)N[C@@H](Cc2ccccc2)C(=O)N[C@@H](Cc2c[nH]c3ccccc23)C(=O)N[C@@H](CC(=O)O)C1=O [Example 1368] ({CH2CO}-FWD[NHexGly]Y[Nle]NR[NMeD][Ahp(2)]PVDCG-OH; thioether N-14)
- IC50: 37 nM

Compound: CCCCCCN1CC(=O)N[C@@H](Cc2ccc(O)cc2)C(=O)N[C@@H](CCCC)C(=O)N[C@@H](CC(=O)O)C(=O)N[C@@H](CCCNC(=N)N)C(=O)N(C)[C@@H](CCCC)C(=O)N[C@@H](CCCCC)C(=O)N2CCC[C@H]2C(=O)N[C@@H](C(C)(C)C)C(=O)N[C@@H](CC(=O)O)C(=O)N[C@H](C(=O)N[C@@H](CC(N)=O)C(=O)O)CSCC(=O)N[C@@H](Cc2ccccc2)C(=O)N[C@@H](Cc2c[nH]c3ccccc23)C(=O)N[C@@H](CC(=O)O)C1=O [Example 1403] ({CH2CO}-FWD[NHexGly]Y[Nle]DR[NMeNle][Ahp(2)]P[Tle]DCN-OH; thioether N-14)
- IC50: 32 nM

Compound: CCCCCCN1CC(=O)N[C@@H](Cc2ccc(O)cc2)C(=O)N[C@@H](CC(C)C)C(=O)N[C@@H](CC(N)=O)C(=O)N[C@@H](CCCNC(=N)N)C(=O)N[C@@H](CC(C)C)C(=O)N[C@@H](CCCCC)C(=O)N2CCC[C@H]2C(=O)N[C@@H](C(C)C)C(=O)N[C@@H](C)C(=O)N[C@H](C(=O)NCC(=O)O)CSCC(=O)N[C@@H](Cc2ccccc2)C(=O)N[C@@H](Cc2ccc(O)cc2)C(=O)N[C@@H](CC(=O)O)C1=O [Example 1008] ({CH2CO}-FYD[NHexGly]YLNRL[Ahp(2)]PVACG-OH; thioether N-14)
- IC50 [2]: 34.9 nM

Compound: CCCCCCN1CC(=O)N[C@@H](Cc2ccc(O)cc2)C(=O)N[C@@H](CCCCN)C(=O)NCC(=O)N[C@@H](CCCNC(=N)N)C(=O)N[C@@H](CC(C)C)C(=O)N[C@@H](CCCCC)C(=O)N2CCC[C@H]2C(=O)N[C@@H](C(C)C)C(=O)N[C@@H](CO)C(=O)N[C@H](C(=O)NCC(=O)O)CSCC(=O)N[C@@H](Cc2ccccc2)C(=O)N[C@@H](Cc2ccc(O)cc2)C(=O)N[C@@H](CC(=O)O)C1=O [Example 1053] ({CH2CO}-FYD[NHexGly]YKGRL[Ahp(2)]PVSCG-OH; thioether N-14)
- IC50 [2]: 20.7 nM

Compound: CCCCCCN1CC(=O)N[C@@H](Cc2ccc(O)cc2)C(=O)N[C@@H](CCCC)C(=O)N[C@@H](CC(=O)O)C(=O)N[C@@H](CCCNC(=N)N)C(=O)N(C)[C@@H](CCCC)C(=O)N[C@@H](CCCCC)C(=O)N2CCC[C@H]2C(=O)N[C@@H](C(C)C)C(=O)N[C@@H](CC(=O)O)C(=O)N[C@H](C(=O)N[C@@H](CO)C(N)=O)CSCC(=O)N[C@@H](Cc2ccc3ccccc3c2)C(=O)N[C@@H](Cc2ccc(O)cc2)C(=O)N[C@@H](CC(=O)O)C1=O [Ex 1318] ({CH2CO}-[2Nal]YD[NHexGly]Y[Nle]DR[NMeNle][Ahp(2)]PVDCS-NH2; thioether N-14)
- IC50 [1]: 11.9 nM

Compound: CCCCCCN1CC(=O)N[C@@H](Cc2ccc(O)cc2)C(=O)N[C@@H](CC(C)C)C(=O)N[C@@H](CC(N)=O)C(=O)N[C@@H](CCCNC(=N)N)C(=O)N(C)[C@@H](CCCC)C(=O)N[C@@H](CCCCC)C(=O)N2CCC[C@H]2C(=O)N[C@@H](C(C)(C)C)C(=O)N[C@@H](CO)C(=O)N[C@H](C(=O)NCC(N)=O)CSCC(=O)N[C@@H](Cc2cccc(C#N)c2)C(=O)N[C@@H](Cc2ccc(O)cc2)C(=O)N[C@@H](CC(=O)O)C1=O [compound 1210] ({CH2CO}-[Phe(3-CN)]YD[NHexGly]YLNR[NMeNle][Ahp(2)]P[Tle]SCG-NH2; thioether N-14)
- IC50: 38.3 nM

Compound: CCCCCCN1CC(=O)N[C@@H](Cc2ccc(O)cc2)C(=O)N[C@@H](CC(C)C)C(=O)NCC(=O)N[C@@H](CCCNC(=N)N)C(=O)N[C@@H](Cc2ccc(O)cc2)C(=O)N[C@@H](CCCCC)C(=O)N2CCC[C@H]2C(=O)N[C@@H](C(C)C)C(=O)N[C@@H](CO)C(=O)N[C@H](C(=O)NCC(=O)O)CSCC(=O)N[C@@H](Cc2ccc3ccccc3c2)C(=O)N[C@@H](Cc2ccc(O)cc2)C(=O)N[C@@H](CC(=O)O)C1=O [Ex 1292] ({CH2CO}-[2Nal]YD[NHexGly]YLGRY[Ahp(2)]PVSCG-OH; thioether N-14)
- IC50 [1]: 29.9 nM

Compound: CCCCCCN1CC(=O)N[C@@H](Cc2ccc(O)cc2)C(=O)N[C@@H](CCCC)C(=O)N[C@@H](CC(N)=O)C(=O)N[C@@H](CCCNC(=N)N)C(=O)N[C@@H](CC(C)C)C(=O)N[C@@H](CCCCC)C(=O)N2CCC[C@H]2C(=O)N[C@@H](C(C)(C)C)C(=O)N[C@@H](CO)C(=O)N[C@H](C(=O)NCC(N)=O)CSCC(=O)N[C@@H](Cc2ccccc2)C(=O)N[C@@H](Cc2c[nH]c3ccccc23)C(=O)N[C@@H](CC(=O)O)C1=O [Example 1364] ({CH2CO}-FWD[NHexGly]Y[Nle]NRL[Ahp(2)]P[Tle]SCG-NH2; thioether N-14)
- IC50: 44 nM

Compound: CCCCCCN1CC(=O)N[C@@H](Cc2ccc(O)cc2)C(=O)N[C@@H](CCCC)C(=O)N[C@@H](CC(=O)O)C(=O)N[C@@H](CCCN)C(=O)N(C)[C@@H](CCCC)C(=O)N[C@@H](CCCCC)C(=O)N2CCC[C@H]2C(=O)N[C@@H](C(C)C)C(=O)N[C@@H](CC(=O)O)C(=O)N[C@H](C(=O)N[C@@H](CO)C(N)=O)CSCC(=O)N[C@@H](Cc2cccc(C)c2)C(=O)N[C@@H](Cc2c[nH]c3ccccc23)C(=O)N[C@@H](CC(=O)O)C1=O [compound 1446] ({CH2CO}-[Phe(3-Me)]WD[NHexGly]Y[Nle]D[Orn][NMeNle][Ahp(2)]PVDCS-NH2; thioether N-14)
- IC50 (the 19th table, scaffold drawing 22): 9.1 nM

The next lines start with the values.

- IC50 (cell-based binding high-content assay): 52 nM
Compound: CCCCCCN1CC(=O)N[C@@H](Cc2ccc(O)cc2)C(=O)N[C@@H](CCCC)C(=O)N[C@@H](CC(N)=O)C(=O)N[C@@H](CCCNC(=N)N)C(=O)N(C)[C@@H](CCCC)C(=O)N[C@@H](CCCCC)C(=O)N2CCC[C@H]2C(=O)N[C@@H](C(C)(C)C)C(=O)N[C@@H](CC(=O)O)C(=O)N[C@H](C(=O)N[C@@H](CC(N)=O)C(=O)NCCOCCOCC(=O)NCCCCCCCCCCC(=O)O)CSCC(=O)N[C@@H](Cc2ccccc2)C(=O)N[C@@H](Cc2c[nH]c3ccccc23)C(=O)N[C@@H](CC(=O)O)C1=O [Example 2338] ({CH2CO}-FWD[NHexGly]Y[Nle]NR[NMeNle][Ahp(2)]P[Tle]DCN[AEEA][Aun]-OH; thioether N-14)

- IC50 [1]: 26.6 nM
Compound: CCCCCCN1CC(=O)N[C@@H](Cc2ccc(O)cc2)C(=O)N[C@@H](CCCCC)C(=O)N[C@@H](CC(=O)O)C(=O)N[C@@H](CCCNC(=N)N)C(=O)N[C@@H](CC(C)C)C(=O)N[C@@H](CCCCC)C(=O)N2CCC[C@H]2C(=O)N[C@@H](C(C)C)C(=O)N[C@@H](CC(=O)O)C(=O)N[C@H](C(=O)NCC(N)=O)CSCC(=O)N[C@@H](Cc2ccc3ccccc3c2)C(=O)N[C@@H](Cc2ccc(O)cc2)C(=O)N[C@@H](CC(=O)O)C1=O [Ex 1279] ({CH2CO}-[2Nal]YD[NHexGly]Y[Ahp(2)]DRL[Ahp(2)]PVDCG-NH2; thioether N-14)

- IC50 (the 20th table, scaffold drawing 23): 3.2 nM
Compound: CCCCCCN1CC(=O)N[C@@H](Cc2ccc(O)cc2)C(=O)N[C@@H](CCCC)C(=O)N[C@@H](CC(N)=O)C(=O)N[C@@H](CCCNC(=N)N)C(=O)N[C@@H](CC(C)C)C(=O)N[C@@H](CCCCC)C(=O)N2CCC[C@H]2C(=O)N[C@@H](C(C)C)C(=O)N[C@@H](CO)C(=O)N[C@H](C(=O)NCC(=O)O)CSCC(=O)N[C@@H](Cc2ccc(O)cc2)C(=O)N[C@@H](Cc2ccc(O)cc2)C(=O)N[C@@H](CC(=O)O)C1=O [compound 1473] ({CH2CO}-YYD[NHexGly]Y[Nle]NRL[Ahp(2)]PVSCG-OH; thioether N-14)

- IC50: 17.6 nM
Compound: CCCCCCN1CC(=O)N[C@@H](Cc2ccc(O)cc2)C(=O)N[C@@H](CCCC)C(=O)N[C@@H](CC(N)=O)C(=O)N[C@@H](CCCNC(=N)N)C(=O)N(C)[C@@H](CCCC)C(=O)N[C@@H](CCCCC)C(=O)N(C)[C@@H](C)C(=O)N[C@@H](C(C)C)C(=O)N[C@@H](CO)C(=O)N[C@H](C(=O)NCC(N)=O)CSCC(=O)N[C@@H](Cc2ccccc2)C(=O)N[C@@H](Cc2c[nH]c3ccccc23)C(=O)N[C@@H](CC(=O)O)C1=O [compound 1143] ({CH2CO}-FWD[NHexGly]Y[Nle]NR[NMeNle][Ahp(2)][NMeA]VSCG-NH2; thioether N-14)

- IC50 [2]: 5.6 nM
Compound: CCCCCCN1CC(=O)N[C@@H](Cc2ccc(O)cc2)C(=O)N[C@@H](CCCC)C(=O)N[C@@H](CC(=O)O)C(=O)N[C@@H](CCCNC(=N)N)C(=O)N[C@@H](CC(C)C)C(=O)N[C@@H](CCCCC)C(=O)N2CCC[C@H]2C(=O)N[C@@H](C(C)C)C(=O)N[C@@H](CC(=O)O)C(=O)N[C@H](C(=O)NCC(=O)O)CSCC(=O)N[C@@H](Cc2ccccc2)C(=O)N[C@@H](Cc2ccc(O)cc2)C(=O)N[C@@H](CC(=O)O)C1=O [Example 1010] ({CH2CO}-FYD[NHexGly]Y[Nle]DRL[Ahp(2)]PVDCG-OH; thioether N-14)
